Data on four molecules can be found in ChEMBL document CHEMBL1130933, “Structure-based design of N-[2-(1-piperidinylethyl)]-N'-[2-(5-bromopyridyl)]-thiourea and N-[2-(1-piperazinylethyl)]-N'-[2-(5-bromopyridyl)]-thiourea as potent non-nucleoside inhibitors of HIV-1 reverse transcriptase” (Bioorg Med Chem Lett, 1998).

What all share (type): functional
Assay [1] is described as follows: Inhibitory effect on p24 production in HIV-infected peripheral blood mononuclear cells. The note with it: Homo sapiens.
The nature of assay [2]: Selective index was evaluated from inhibitory concentrations of compound.
The nature of assay [3]: Compound was evaluated for cellular proliferation (on viability of peripheral blood mononuclear cells) using microculture tetrazolium assay (MTA). The note with it: Homo sapiens.

As a reminder, the IC50 is the concentration that inhibits the measured activity by half. `S=C(NCCN1CCCCC1)Nc1ccc(Br)cn1`: the IC50 in assay [1] is below 1 nM; in assay [3], above 100000 nM. Also, the Selectivity index in assay [2] was above 100000.

Take `S=C(NCCc1ccccn1)Nc1ccc(Br)cn1` [TROVIRDINE]: the IC50 is 7 nM in assay [1] and above 100000 nM in assay [3]. This molecule gave a Selectivity index in assay [2] above 10000.

As for `S=C(NCCN1CCNCC1)Nc1ccc(Br)cn1`, the IC50 in assay [1] was 2 nM; in assay [3], above 100000 nM. Besides, the Selectivity index in assay [2] is above 50000.

As for `Cc1cn([C@H]2C[C@H](N=[N+]=[N-])[C@@H](CO)O2)c(=O)[nH]c1=O` [ZIDOVUDINE], the values for the IC50 in assay [1] and in assay [3] were 6 nM and 50000 nM, respectively.
